Reference: US20020156325A1, “Asymmetric beta-ketoiminate ligand compound, preparation method thereof, and organometal percursor comprising the same” (priority 2001, published 2002)

Assay: Thermal gravimetric analysis at atmospheric pressure
Type: physicochemical

Row | Substance | solid residue left after vaporization or decomposition | temperature at which the metal complex was vaporized or decomposed | residue left after vaporization or decomposition (in words) (at 290° C.)
1 | Ti[CH3COCHCN(CH2CH2OH)2CH2CH3]2 [Example 6] | about 12% | about 380 °C | 
2 | Ti [CH3COCHCNH (CH2CH (CH3) OH) CH2CH3]2 [Example 4] |  | 290 °C | little residue
3 | Ti[CH3COCHCNH(CH2CH2OH)CH2CH3]2 [Example 5] | 7% | about 330 °C | 
